The record followed here is patent publication US20170088545A1, “CARBOXAMIDE INHIBITORS” (Norvartis AG, priority 2014, published 2017).

Structures are written as SMILES.

For one experiment, the target named is Smurf-2 (Homo sapiens, UniProt Q9HAU4). As to the kind of experiment: HECT E3 ligase autoubiquitinylation TR-FRET assay, Smurf-2. The experiment is classed as biochemical. The following applies: 45 min incubation, 8-point dose-response. An excerpt:
(§1) To determine the HECT E3 ligase selectivity of the compounds, a panel of biochemical HECT E3 ligase autoubiquitinylation assays was employed (Smurf-1, Smurf-2, WWP1, WWP2, ITCH, Nedd4, Nedd4L and E6AP). The conjugation of ubiquitin to a protein substrate is a multistep process. In an initial ATP-requiring step, a thioester bond is formed between the carboxyl terminus of ubiquitin and an internal cystein residue of the ubiquitin-activating enzyme (E1). Activated ubiquitin is then transferred to a specific cystein residue of an ubiquitin-conjugating enzyme (E2). E2s donate ubiquitin to a HECT E3 ligase (E3) from which it is transferred to the substrate protein. HECT E3 ligases can auto-ubiquitinylate. This event is detected in the TR-FRET (Time-Resolved Fluorescence Resonance Energy Transfer) assay used in this panel. The reaction mix contains E1, E2, tagged-E3, biotin-conjugated ubiquitin, the compound and ATP in a suitable buffer and is incubated for 45 minutes to allow auto-ubiquitinylation of the E3 ligase. To measure the extent of ubiquitinylated E3 ligase by TR-FRET, the donor fluorophore Europium cryptate (Eu3+ cryptate), conjugated to streptavidin which subsequently binds to biotinylated ubiquitin, and the modified allophycocyanin XL665 (HTRF® primary acceptor fluorophore) coupled to a tag-specific antibody (HA, His or GST), which recognizes the respective E3 ligase fusion proteins, are added after the reaction is complete. When these two fluorophores are brought together by a biomolecular interaction (in this case ubiquitinylation of the E3 ligase), a portion of the energy captured by the Cryptate during excitation is released through fluorescence emission at 620 nm, while the remaining energy is transferred to XL665. This energy is then released by XL665 as specific fluorescence at 665 nm. Light at 665 nm is emitted only through FRET with Europium.
(§2) Test and reference compounds are prepared at 180× [final] in 90% DMSO, and diluted 1:3 in 90% DMSO.
(§3) For the biochemical assay panel, 50 nl of the test compounds, reference compounds and buffer/DMSO control are transferred to the respective wells of a 384-well white GREINER “SMALL VOLUME” PS plate. The assay panel is run at room temperature on a Biomek FX liquid handling workstation. To the assay plates containing 50 nl compound or control solutions in 90% DMSO, 4.5 ul of E3 ligase solution were added per well, followed by 4.5 ul of the pre-incubated E1/E2/Ub mix or the pre-diluted ubiquitin (LOW control). Plates are shaken vigorously after each addition. In this assay the compound concentrations range from 3 nM to 10 uM in an 8-point dose-response curve.
(§4) After 45 min of incubation the ubiquitinylation reactions were stopped by adding 4.5 ul 2 mM NEM, immediately followed by 4.5 ul of a detection solution including the XL665-labeled antibody and the streptavidin-coupled europium to give a total volume of 18 ul. After an incubation time of 45 min in the dark, the plates are transferred into the Pherastar fluorescence reader to measure the TR-FRET signal.
For orientation: Time-resolved FRET reads energy transfer from a long-lived donor to a nearby acceptor.

A further experiment deals with Smurf-1 (Homo sapiens, UniProt Q9HCE7). Put plainly: HECT E3 ligase autoubiquitinylation TR-FRET assay, Smurf-1. The following applies: 45 min incubation, 8-point dose-response. The experiment is classed as biochemical.
Source text: as §1, §2, §3, §4

Smurf-2, sequence (Q9HAU4 whole entry, species assumed): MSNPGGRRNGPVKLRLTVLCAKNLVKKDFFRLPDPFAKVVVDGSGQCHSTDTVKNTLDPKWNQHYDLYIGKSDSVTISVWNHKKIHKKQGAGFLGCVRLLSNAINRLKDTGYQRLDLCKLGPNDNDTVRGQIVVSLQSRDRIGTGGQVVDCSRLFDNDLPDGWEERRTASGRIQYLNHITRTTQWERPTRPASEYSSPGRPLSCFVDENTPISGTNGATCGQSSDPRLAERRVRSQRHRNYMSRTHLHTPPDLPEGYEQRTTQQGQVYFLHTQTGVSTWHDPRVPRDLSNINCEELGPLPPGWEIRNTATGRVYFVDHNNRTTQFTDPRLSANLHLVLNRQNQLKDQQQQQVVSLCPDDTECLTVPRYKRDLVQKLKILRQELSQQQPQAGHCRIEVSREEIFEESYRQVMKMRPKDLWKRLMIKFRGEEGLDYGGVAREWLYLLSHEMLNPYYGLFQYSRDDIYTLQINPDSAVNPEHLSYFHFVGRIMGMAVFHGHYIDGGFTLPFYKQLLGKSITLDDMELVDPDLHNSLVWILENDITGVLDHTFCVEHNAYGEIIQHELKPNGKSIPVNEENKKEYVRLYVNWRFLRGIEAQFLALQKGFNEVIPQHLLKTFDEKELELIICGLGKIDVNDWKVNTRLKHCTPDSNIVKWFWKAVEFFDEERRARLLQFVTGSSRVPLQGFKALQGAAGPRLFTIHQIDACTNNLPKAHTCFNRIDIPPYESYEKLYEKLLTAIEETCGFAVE
Smurf-1, sequence (Q9HCE7 whole entry): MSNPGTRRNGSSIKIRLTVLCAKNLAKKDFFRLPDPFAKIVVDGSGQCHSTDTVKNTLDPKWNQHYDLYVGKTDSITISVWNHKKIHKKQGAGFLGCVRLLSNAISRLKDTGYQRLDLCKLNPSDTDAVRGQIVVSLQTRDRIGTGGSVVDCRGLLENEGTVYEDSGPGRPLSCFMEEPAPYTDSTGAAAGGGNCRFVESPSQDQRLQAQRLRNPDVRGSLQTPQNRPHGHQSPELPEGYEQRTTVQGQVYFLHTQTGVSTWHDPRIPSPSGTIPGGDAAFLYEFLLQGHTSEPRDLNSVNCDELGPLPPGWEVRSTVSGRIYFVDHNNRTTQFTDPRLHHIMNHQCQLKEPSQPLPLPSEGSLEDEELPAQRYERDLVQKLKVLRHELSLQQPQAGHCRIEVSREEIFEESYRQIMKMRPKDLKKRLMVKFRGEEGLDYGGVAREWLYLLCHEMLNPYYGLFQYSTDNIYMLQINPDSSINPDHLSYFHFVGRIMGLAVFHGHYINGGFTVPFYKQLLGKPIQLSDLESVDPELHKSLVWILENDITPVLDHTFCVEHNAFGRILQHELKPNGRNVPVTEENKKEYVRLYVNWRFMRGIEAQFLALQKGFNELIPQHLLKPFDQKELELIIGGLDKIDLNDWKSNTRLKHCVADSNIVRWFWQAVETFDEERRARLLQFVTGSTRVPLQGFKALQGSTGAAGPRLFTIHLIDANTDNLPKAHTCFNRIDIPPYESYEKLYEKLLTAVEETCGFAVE

By IC50 is commonly meant the concentration that inhibits the measured activity by half. In the case of `COc1ccc(-c2onc(C(=O)Nc3c(C)n(C)n(C4CCCCC4)c3=O)c2C2CC2)c(C(F)(F)F)c1` [Example 085, N-(2-Cyclohexyl-1,5-dimethyl-3-oxo-2,3-dihydro-1H-pyrazol-4-yl)-4-cyclopropyl-5-(4-methoxy-2-(trifluoromethyl)phenyl)isoxazole-3-carboxamide], the IC50 was more than 20200 nM against Smurf-2 and 50.5 nM at Smurf-1.

Take `Cc1c(C(=O)Nc2c(C)n(C)n(C3CCCCC3)c2=O)noc1-c1cccc(F)c1F` [Example 055, N-(2-Cyclohexyl-1,5-dimethyl-3-oxo-2,3-dihydro-1H-pyrazol-4-yl)-5-(2,3-difluorophenyl)-4-methylisoxazole-3-carboxamide]: the IC50 is more than 20200 nM on Smurf-2 and 109 nM on Smurf-1.

Regarding `Cc1c(C(=O)Nc2c(C)n(C)n(C3CCCCC3)c2=O)noc1-c1ccc(OCC2CC2)cc1Cl` [Example 072, 5-(2-Chloro-4-(cyclopropylmethoxy)phenyl)-N-(2-cyclohexyl-1,5-dimethyl-3-oxo-2,3-dihydro-1H-pyrazol-4-yl)-4-methylisoxazole-3-carboxamide], the IC50 at Smurf-2 was more than 20200 nM; against Smurf-1 it was 98 nM.

As for `COc1ccc(-c2onc(C(=O)Nc3c(C)n(C)n(-c4ccccc4F)c3=O)c2C)c(Cl)c1` [Example 006, 5-(2-Chloro-4-methoxyphenyl)-N-(2-(2-fluorophenyl)-1,5-dimethyl-3-oxo-2,3-dihydro-1H-pyrazol-4-yl)-4-methylisoxazole-3-carboxamide], the IC50 at Smurf-2 is 10800 nM; at Smurf-1, 23.5 nM.

Turning to `Cc1c(NC(=O)c2noc(-c3ccc(C4CC4)cc3Cl)c2Cl)c(=O)n(-c2ccccc2F)n1C` [Example 030, 4-Chloro-5-(2-chloro-4-cyclopropylphenyl)-N-(2-(2-fluorophenyl)-1,5-dimethyl-3-oxo-2,3-dihydro-1H-pyrazol-4-yl)isoxazole-3-carboxamide], the IC50 against Smurf-2 stood at 5400 nM; on Smurf-1, 13.3 nM.

For `Cc1c(NC(=O)c2noc(-c3ccc(Cl)cc3Cl)c2Br)c(=O)n(-c2ccccc2F)n1C` [Example 037, 4-Bromo-5-(2,4-dichlorophenyl)-N-(2-(2-fluorophenyl)-1,5-dimethyl-3-oxo-2,3-dihydro-1H-pyrazol-4-yl)isoxazole-3-carboxamide], the IC50 on Smurf-2 amounted to 17800 nM; against Smurf-1, 36 nM.

As for `COc1ccc(-c2onc(C(=O)Nc3c(C)n(C)n(C4CCCCC4)c3=O)c2C2CC2)c(F)c1` [Example 086, N-(2-Cyclohexyl-1,5-dimethyl-3-oxo-2,3-dihydro-1H-pyrazol-4-yl)-4-cyclopropyl-5-(2-fluoro-4-methoxyphenyl) isoxazole-3-carboxamide], the IC50 on Smurf-2 was more than 20200 nM; against Smurf-1 it was 260 nM.

Turning to `Cc1c(C(=O)Nc2c(C)n(C)n(-c3ccccc3F)c2=O)noc1-c1ccc(N(C)C)cc1` [Example 012, 5-(4-(Dimethylamino)phenyl)-N-(2-(2-fluorophenyl)-1,5-dimethyl-3-oxo-2,3-dihydro-1H-pyrazol-4-yl)-4-methylisoxazole-3-carboxamide], the IC50 against Smurf-2 was more than 10000 nM; against Smurf-1 it was 1050 nM.

Consider `COc1ccc(-c2onc(C(=O)Nc3c(C)n(C)n(C4CCCCC4)c3=O)c2Br)c(Cl)c1` [Example 034, 4-Bromo-5-(2-chloro-4-methoxyphenyl)-N-(2-cyclohexyl-1,5-dimethyl-3-oxo-2,3-dihydro-1H-pyrazol-4-yl)isoxazole-3-carboxamide], for which the IC50 against Smurf-2 turned out to be 5230 nM; on Smurf-1, 3.7 nM.

Take `Cc1c(C(=O)Nc2c(C)n(C)n(C3CCCCC3)c2=O)noc1-c1ccc(Cl)cc1` [Example 049, 5-(4-Chlorophenyl)-N-(2-cyclohexyl-1,5-dimethyl-3-oxo-2,3-dihydro-1H-pyrazol-4-yl)-4-methylisoxazole-3-carboxamide]: the IC50 against Smurf-2 was 6750 nM; at Smurf-1 it was 23.5 nM.
